The text below walks through data of patent US12540131B2 (Merck Sharp & Dohme LLC, priority 2019, dated 2026).

Where only a bound is given, the exact number is not on record here.

Chain of GST tagged truncated human mutant G2019S LRRK2 (Q5S007 970-2527 G2019S): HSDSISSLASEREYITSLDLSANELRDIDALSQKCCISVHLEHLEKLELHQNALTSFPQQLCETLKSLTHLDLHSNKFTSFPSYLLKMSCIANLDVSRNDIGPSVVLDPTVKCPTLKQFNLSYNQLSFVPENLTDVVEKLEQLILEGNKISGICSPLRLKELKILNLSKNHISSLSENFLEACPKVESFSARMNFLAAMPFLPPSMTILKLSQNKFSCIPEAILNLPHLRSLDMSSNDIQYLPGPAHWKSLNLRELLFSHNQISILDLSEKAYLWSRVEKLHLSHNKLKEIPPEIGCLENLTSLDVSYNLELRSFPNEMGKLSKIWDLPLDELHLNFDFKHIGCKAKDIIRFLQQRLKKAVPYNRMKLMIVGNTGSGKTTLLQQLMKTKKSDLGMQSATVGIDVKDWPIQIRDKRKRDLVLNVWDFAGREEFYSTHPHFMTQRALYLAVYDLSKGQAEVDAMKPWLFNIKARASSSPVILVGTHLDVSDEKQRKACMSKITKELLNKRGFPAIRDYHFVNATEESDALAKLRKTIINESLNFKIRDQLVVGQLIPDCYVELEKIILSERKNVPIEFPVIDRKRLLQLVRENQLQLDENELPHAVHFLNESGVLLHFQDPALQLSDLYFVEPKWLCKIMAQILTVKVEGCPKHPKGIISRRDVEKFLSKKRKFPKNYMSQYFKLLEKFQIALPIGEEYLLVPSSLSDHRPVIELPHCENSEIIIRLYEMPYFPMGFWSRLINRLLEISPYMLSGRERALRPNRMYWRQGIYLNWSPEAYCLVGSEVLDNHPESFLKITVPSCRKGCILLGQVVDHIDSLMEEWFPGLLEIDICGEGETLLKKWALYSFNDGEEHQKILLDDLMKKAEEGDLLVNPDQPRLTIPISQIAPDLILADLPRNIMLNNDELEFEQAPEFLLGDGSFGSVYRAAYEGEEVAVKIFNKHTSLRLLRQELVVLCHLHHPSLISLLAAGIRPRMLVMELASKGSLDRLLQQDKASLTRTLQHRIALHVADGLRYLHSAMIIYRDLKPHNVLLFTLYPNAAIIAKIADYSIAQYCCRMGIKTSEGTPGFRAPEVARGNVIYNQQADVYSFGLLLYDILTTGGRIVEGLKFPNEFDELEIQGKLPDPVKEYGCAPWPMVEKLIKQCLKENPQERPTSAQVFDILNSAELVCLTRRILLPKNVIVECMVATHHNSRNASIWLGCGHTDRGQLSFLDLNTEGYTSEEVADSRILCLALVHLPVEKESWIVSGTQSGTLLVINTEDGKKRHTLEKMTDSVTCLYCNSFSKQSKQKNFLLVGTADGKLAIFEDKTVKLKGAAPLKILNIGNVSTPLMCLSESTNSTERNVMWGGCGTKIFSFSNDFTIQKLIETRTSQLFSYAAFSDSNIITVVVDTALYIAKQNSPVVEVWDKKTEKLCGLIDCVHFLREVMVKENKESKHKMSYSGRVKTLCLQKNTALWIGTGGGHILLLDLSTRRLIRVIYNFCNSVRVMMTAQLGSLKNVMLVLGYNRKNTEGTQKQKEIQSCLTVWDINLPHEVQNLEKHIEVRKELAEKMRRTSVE

The target in one experiment is GST tagged truncated human mutant G2019S LRRK2 (Homo sapiens (Human), UniProt Q5S007, G2019S). Nature of the experiment: LRRK2 Km ATP LanthaScreen Assay. The experiment is classed as biochemical. To be noted: G2019S LRRK2, 134 μM ATP (Km ATP), mean values. The method in brief:
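Enzyme (GST-tagged, truncated) was preincubated with compound for 15 min at RT in 50 mM Tris pH 8.5, 10 mM MgCl2, 0.01% Brij-35, 1 mM EGTA, 2 mM DTT and 0.05 mM orthovanadate. Fluorescein-LRRKtide and 134 μM ATP (Km) were then added for 90 min. EDTA and Tb-anti-pERM antibody stopped the reaction; the TR-FRET 520/495 ratio gave 4-parameter IC50s, reported as mean pIC50.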
Regarding `Cc1cc2cnc(Nc3cnn(C4CC4)c3Cl)nc2cc1[C@@H]1CCN(C2COC[C@H]2O)C[C@H]1F` (single isomer, unassigned) [Ex-4.136, (3S,4S)(3S,4S) or (3S,4S)(3R,4R) or (3R,4R)(3S,4S) or (3R,4R)(3R,4R) 4-(4-{2-[(5-chloro-1-cyclopropyl-1H-pyrazol-4-yl)amino]-6-methylquinazolin-7-yl}-3-fluoropiperidin-1-yl)oxolan-3-ol], the “LRRK2 pIC50” value came out at 8.41.
As to `Cc1c(Nc2ncc3cc(Cl)c(C4CCN([C@]5(C)COC[C@@H]5O)CC4)cc3n2)cnn1C` (single isomer, unassigned) [Ex-2.77, (3S,4S) or (3R,4R) 4-(4-{6-chloro-2-[(1,5-dimethyl-1H-pyrazol-4-yl)amino]quinazolin-7-yl}piperidin-1-yl)-4-methyloxolan-3-ol], the “LRRK2 pIC50” value turned out to be 8.01.
Consider `Cc1cc(Nc2ncc3cc(C)c([C@H]4CCN([C@@H]5COC[C@@H]5O)C[C@@H]4F)cc3n2)n(C)n1` (single isomer, unassigned) [Ex-5.11, (3S,4S)(3S,4S) or (3S,4S)(3R,4R) or (3R,4R)(3S,4S) or (3R,4R)(3R,4R) 4-(4-{2-[(1,3-dimethyl-1H-pyrazol-5-yl)amino]-6-methylquinazolin-7-yl}-3-fluoropiperidin-1-yl)oxolan-3-ol], for which the “LRRK2 pIC50” value is listed as 8.57.
`O[C@@H]1COC[C@@H]1N1CCC(c2cc3nc(Nc4cnn(C5CC5)c4Cl)ncc3cc2Cl)CC1` (single isomer, unassigned) [Ex-4.105, (3S,4S) or (3R,4R) 4-(4-(6-chloro-2-((5-chloro-1-cyclopropyl-1H-pyrazol-4-yl)amino)quinazolin-7-yl)piperidin-1-yl)tetrahydrofuran-3-ol]: the “LRRK2 pIC50” value came to 8.51.
For `CC(n1ncc(Nc2ncc3cc(Cl)c([C@@H]4CCN(C5COC5)C[C@H]4F)cc3n2)c1Cl)C(C)(C)O` (single isomer, unassigned) [Ex-4.69, (R)(3S,4S) or (R)(3R,4R) or (S)(3S,4S) or (S)(3R,4R) 3-[5-chloro-4-({6-chloro-7-[3-fluoro-1-(oxetan-3-yl)piperidin-4-yl]quinazolin-2-yl}amino)-1H-pyrazol-1-yl]-2-methylbutan-2-ol], the “LRRK2 pIC50” value was determined as 9.13.
In the case of `Cn1ncc(Nc2ncc3cc(Cl)c([C@H]4CCN([C@@H]5COC[C@@H]5O)C[C@@H]4F)cc3n2)c1Cl` (single isomer, unassigned) [Ex-4.189, (3S,4S)(3S,4S) or (3S,4S)(3R,4R) or (3R,4R)(3S,4S) or (3R,4R)(3R,4R) 4-(4-{6-chloro-2-[(5-chloro-1-methyl-1H-pyrazol-4-yl)amino]quinazolin-7-yl}-3-fluoropiperidin-1-yl)oxolan-3-ol], the “LRRK2 pIC50” value is more than 9.20.
On the same count and under the same terms, to `Cc1cc2cnc(Nc3cnn(C4CC4)c3Cl)nc2cc1C1CCN(C2COC2)CC1` [Ex-4.84, N-(5-chloro-1-cyclopropyl-1H-pyrazol-4-yl)-6-methyl-7-[1-(oxetan-3-yl)piperidin-4-yl]quinazolin-2-amine] belongs 9.01.
With `CN(C)CC12CC(n3cc(Nc4ncc5cc(Cl)c(C6CCN(C7(C)COC7)CC6)cc5n4)cn3)(C1)C2` [Ex-2.59, 6-chloro-N-(1-{3-[(dimethylamino)methyl]bicyclo [1.1.1]pentan-1-yl}-1H-pyrazol-4-yl)-7-[1-(3-methyloxetan-3-yl)piperidin-4-yl]quinazolin-2-amine], the “LRRK2 pIC50” value was more than 9.20.
On the same count and under the same terms, to `Cc1cc2cnc(Nc3cnn(C45CC(C4)C5)c3Cl)nc2cc1[C@@H]1CCN([C@H]2COC[C@H]2O)C[C@H]1F` (single isomer, unassigned) [Ex-8.34, (3S,4S)(3S,4S) or (3S,4S)(3R,4R) or (3R,4R)(3S,4S) or (3R,4R)(3R,4R) 4-[4-(2-{[1-(bicyclo[1.1.1]pentan-1-yl)-5-chloro-1H-pyrazol-4-yl]amino}-6-methylquinazolin-7-yl)-3-fluoropiperidin-1-yl]oxolan-3-ol] belongs more than 9.20; to `CC(n1ncc(Nc2ncc3cc(Cl)c(C4CCN(C5COC5)CC4)cc3n2)c1Cl)C(C)(C)O` (single isomer, unassigned) [Ex-4.62, (8) or (R) 3-[5-chloro-4-({6-chloro-7-[1-(oxetan-3-yl)piperidin-4-yl]quinazolin-2-yl}amino)-1H-pyrazol-1-yl]-2-methylbutan-2-ol], more than 9.20.
On the same count and under the same terms, the figure for `C[C@@]1(N2CC[C@@H](c3cc4nc(Nc5cnn(C6CC6)c5Cl)ncc4cc3Cl)[C@H](F)C2)COC[C@@H]1O` (single isomer, unassigned) [Ex-4.249, (3S,4S)(3S,4S) or (3S,4S)(3R,4R) or (3R,4R)(3S,4S) or (3R,4R)(3R,4R) 4-(4-{6-chloro-2-[(5-chloro-1-cyclopropyl-1H-pyrazol-4-yl)amino]quinazolin-7-yl}-3-fluoropiperidin-1-yl)-4-methyloxolan-3-ol] is more than 9.20; for `Cc1cc2cnc(Nc3cnn(CC(C)(C)O)c3Cl)nc2cc1[C@@H]1CCN(C2COC2)C[C@H]1F` (single isomer, unassigned) [Ex-4.81, (3S,4S) or (3R,4R) 1-[5-chloro-4-({7-[3-fluoro-1-(oxetan-3-yl)piperidin-4-yl]-6-methylquinazolin-2-yl}amino)-1H-pyrazol-1-yl]-2-methylpropan-2-ol] it is 9.13; for `OC1CCCC1N1CC[C@@H](c2cc3nc(Nc4cnn(C5CC5)c4Cl)ncc3cc2Cl)[C@H](F)C1` (single isomer, unassigned) [Ex-4.157, (1S,2R)(3S,4S) or (1R,2S)(3S,4S) or (1R,2R)(3S,4S) or (1S,2S)(3S,4S) or (1S,2R)(3R,4R) or (1R,2S)(3R,4R) or (1R,2R)(3R,4R) or (1S,2S)(3R,4R) 2-(4-{6-chloro-2-[(5-chloro-1-cyclopropyl-1H-pyrazol-4-yl)amino]quinazolin-7-yl}-3-fluoropiperidin-1-yl)cyclopentan-1-ol] it is 8.38.
In the case of `CC1(n2ncc(Nc3ncc4cc(Cl)c(C5CCNCC5)cc4n3)c2Cl)CC1` [Ex-8.9, 6-chloro-N-[5-chloro-1-(1-methylcyclopropyl)-1H-pyrazol-4-yl]-7-(piperidin-4-yl)quinazolin-2-amine], the “LRRK2 pIC50” value is given as more than 9.20.
For the compound `Cn1nc(C(C)(C)C)cc1Nc1ncc2cc(Cl)c(C3CCN([C@]4(C)COC[C@@H]4O)CC3)cc2n1` (single isomer, unassigned) [Ex-2.83, (3S,4S) or (3R,4R) 4-(4-{2-[(3-tert-butyl-1-methyl-1H-pyrazol-5-yl)amino]-6-chloroquinazolin-7-yl}piperidin-1-yl)-4-methyloxolan-3-ol], the “LRRK2 pIC50” value stood at 8.71.
On to `Cc1c(Nc2ncc3cc(Cl)c(C4C[C@H]5C[C@@H]4CN5C4COC4)cc3n2)cnn1C1CC1` (single isomer, unassigned) [Ex-4.126, (1S,4S) or (1R,4R) 6-chloro-N-(1-cyclopropyl-5-methyl-1H-pyrazol-4-yl)-7-[2-(oxetan-3-yl)-2-azabicyclo[2.2.1]heptan-5-yl]quinazolin-2-amine], for which the “LRRK2 pIC50” value came out at 7.64.
With `Cc1cc(Nc2ncc3cc(C)c([C@@H]4CCN([C@@H]5COC[C@@H]5O)C[C@H]4F)cc3n2)n(C)n1` (single isomer, unassigned) [Ex-5.9, (3S,4S)(3S,4S) or (3S,4S)(3R,4R) or (3R,4R)(3S,4S) or (3R,4R)(3R,4R) 4-(4-{2-[(1,3-dimethyl-1H-pyrazol-5-yl)amino]-6-methylquinazolin-7-yl}-3-fluoropiperidin-1-yl)oxolan-3-ol], the “LRRK2 pIC50” value is recorded as 8.49.
Turning to `CC1(n2ncc(Nc3ncc4cc(Cl)c([C@@H]5CCNC[C@H]5F)cc4n3)c2Cl)CC1` (single isomer, unassigned) [Ex-4.91, (3S,4S) or (3R,4R) 6-chloro-N-[5-chloro-1-(1-methylcyclopropyl)-1H-pyrazol-4-yl]-7-(3-fluoropiperidin-4-yl)quinazolin-2-amine], the “LRRK2 pIC50” value is given as more than 9.20.
Consider `O[C@@H]1COCC1N1CC[C@H](c2cc3nc(Nc4cnn(C5CC5(F)F)c4Cl)ncc3cc2Cl)[C@@H](F)C1` (single isomer, unassigned) [Ex-4.125, (R)(3S,4S)(3S,4S) or (R)(3S,4S)(3R,4R) or (R)(3R,4R)(3S,4S) or (R)(3R,4R)(3R,4R) or (S)(3S,4S)(3S,4S) or (S)(3S,4S)(3R,4R) or (S)(3R,4R)(3S,4S) or (S)(3R,4R)(3R,4R) 4-(6-chloro-2-{[5-chloro-1-(2,2-difluorocyclopropyl)-1H-pyrazol-4-yl]amino}quinazolin-7-yl)-3-fluoropiperidin-1-yl]oxolan-3-ol], for which the “LRRK2 pIC50” value is 8.16.
In the case of `Clc1cc2cnc(Nc3cnn(C4CCC4)c3Cl)nc2cc1C1CCNCC1` [Ex-4.89, 6-chloro-N-(5-chloro-1-cyclobutyl-1H-pyrazol-4-yl)-7-(piperidin-4-yl)quinazolin-2-amine], the “LRRK2 pIC50” value came out at 9.13.

The experiment is the same for the next values; noted with them: G2019S LRRK2, 134 μM ATP (Km ATP), mean values; read-out: LRRK2 pIC50 (converted).
`Cc1c(Nc2ncc3cc(Cl)c(C4CCN(CC(O)C(F)(F)F)CC4)cc3n2)cnn1C1CC1` (single isomer, unassigned) [Ex-4.12, (R) or (S) 3-(4-(6-chloro-2-((1-cyclopropyl-5-methyl-1H-pyrazol-4-yl)amino)quinazolin-7-yl)piperidin-1-yl)-1,1,1-trifluoropropan-2-ol]: the IC50 is less than 0.631 nM.
For `Cc1c(Nc2ncc3cc(Cl)c(C4CCN(C5(C)COC5)CC4)cc3n2)cnn1C1CC1(F)F` (single isomer, unassigned) [Ex-2.29, (S) or (R) 6-chloro-N-[1-(2,2-difluorocyclopropyl)-5-methyl-1H-pyrazol-4-yl]-7-[1-(3-methyloxetan-3-yl)piperidin-4-yl]quinazolin-2-amine], the IC50 was 1.66 nM.
